From article PMC10709440, “High-throughput ligand profile characterization in novel cell lines expressing seven heterologous insect olfactory receptors for the detection of volatile plant biomarkers” (Scientific Reports, 2023)

What was measured:
Drosophila OR71a = target: T1, Drosophila OR71a (Drosophila melanogaster, UniProt Q9VUK5); assay: Calcium ion fluorescence (GCaMP6) assay, OR71a stable HEK293 cell line; assay type: cell-based; settings: for OR71a response (VUAA1-normalized) at 1 μM / OR71a response (VUAA1-normalized) at 10 μM / OR71a response (VUAA1-normalized) at 100 μM / Average response: OR71a cell line; for OR71a response (VUAA1-normalized) at 1 μM: VOC concentration 1 μM; for OR71a response (VUAA1-normalized) at 10 μM: VOC concentration 10 μM; for OR71a response (VUAA1-normalized) at 100 μM: VOC concentration 100 μM; for Average response: VUAA1-normalized response, mean of biological replicates; for DF norm AVERAGE OR71a: threshold 0.05, below shown as 0
T1 construct: expressed in transfected cells
T1 sequence (Q9VUK5 1-378): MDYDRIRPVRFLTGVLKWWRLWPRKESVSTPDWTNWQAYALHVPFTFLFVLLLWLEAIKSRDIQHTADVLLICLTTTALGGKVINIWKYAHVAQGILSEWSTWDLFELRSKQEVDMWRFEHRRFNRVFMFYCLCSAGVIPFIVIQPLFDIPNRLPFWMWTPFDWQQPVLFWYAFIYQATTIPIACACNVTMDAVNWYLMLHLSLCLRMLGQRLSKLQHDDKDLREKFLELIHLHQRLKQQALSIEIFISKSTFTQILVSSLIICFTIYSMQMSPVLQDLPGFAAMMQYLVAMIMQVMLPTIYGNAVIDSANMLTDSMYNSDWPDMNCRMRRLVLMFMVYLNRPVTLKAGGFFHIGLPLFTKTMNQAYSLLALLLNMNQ
T1 sequence (Q9VNB5 1-486 partner): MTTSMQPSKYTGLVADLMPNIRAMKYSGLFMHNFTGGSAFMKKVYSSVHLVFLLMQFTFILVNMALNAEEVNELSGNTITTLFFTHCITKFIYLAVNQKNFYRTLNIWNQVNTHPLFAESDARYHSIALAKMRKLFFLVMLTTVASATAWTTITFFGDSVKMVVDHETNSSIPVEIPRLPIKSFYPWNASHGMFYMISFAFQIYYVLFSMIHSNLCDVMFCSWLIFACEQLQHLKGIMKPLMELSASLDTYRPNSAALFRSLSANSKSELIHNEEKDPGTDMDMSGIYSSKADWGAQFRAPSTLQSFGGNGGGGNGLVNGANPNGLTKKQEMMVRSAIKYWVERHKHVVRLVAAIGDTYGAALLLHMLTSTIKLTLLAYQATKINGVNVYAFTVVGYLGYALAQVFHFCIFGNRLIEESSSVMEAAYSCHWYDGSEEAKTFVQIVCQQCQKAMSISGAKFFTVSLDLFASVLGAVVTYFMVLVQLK
Procedure, shortened: (§1)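 HEK293 lines stably expressing each Drosophila OR with GCaMP6, doxycycline-induced (1 μg/mL) 48 or 72 h. Fluorescence recorded 5 s baseline then 30 s after VOC injection at pH 7.3; ΔF=(FMAX−F0)/F0, normalized to 50 µM VUAA1 response per line, triplicate wells averaged; concentration series 0.01–100 μM.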

Drosophila OR47a = target: T2, Drosophila OR47a (Drosophila melanogaster, UniProt P81921); assay: Calcium ion fluorescence (GCaMP6) assay, OR47a stable HEK293 cell line; assay type: cell-based; settings: for OR47a response (VUAA1-normalized) at 1 μM / OR47a response (VUAA1-normalized) at 10 μM / OR47a response (VUAA1-normalized) at 100 μM / Average response: OR47a cell line; for OR47a response (VUAA1-normalized) at 1 μM: VOC concentration 1 μM; for OR47a response (VUAA1-normalized) at 10 μM: VOC concentration 10 μM; for OR47a response (VUAA1-normalized) at 100 μM: VOC concentration 100 μM; for Average response: mean of biological replicates; for DF norm AVERAGE OR47a: threshold 0.05, below shown as 0
T2 construct: expressed in transfected cells
T2 sequence (P81921 1-385): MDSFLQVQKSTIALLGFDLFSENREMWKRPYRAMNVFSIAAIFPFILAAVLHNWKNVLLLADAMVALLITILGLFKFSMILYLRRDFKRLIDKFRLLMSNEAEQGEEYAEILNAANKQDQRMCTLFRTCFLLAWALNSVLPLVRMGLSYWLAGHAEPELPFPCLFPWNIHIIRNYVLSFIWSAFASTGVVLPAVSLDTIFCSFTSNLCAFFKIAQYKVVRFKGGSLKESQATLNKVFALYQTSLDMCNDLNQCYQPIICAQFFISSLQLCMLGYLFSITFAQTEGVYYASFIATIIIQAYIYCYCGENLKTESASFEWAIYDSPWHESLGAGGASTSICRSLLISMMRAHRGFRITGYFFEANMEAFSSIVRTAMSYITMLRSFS
T2 sequence (Q9VNB5 1-486 partner): T1 sequence (Q9VNB5 1-486 partner)
Procedure, shortened: as §1

[1] = ligand concentration 1 (unit not given)
[2] = ligand concentration 10 (unit not given)
[3] = ligand concentration 100 (unit not given)

SMILES	OR71a response (VUAA1-normalized) at 1 μM (Drosophila OR71a)	OR71a response (VUAA1-normalized) at 10 μM (Drosophila OR71a)	OR71a response (VUAA1-normalized) at 100 μM (Drosophila OR71a)	Average response (Drosophila OR71a; cc. 1 µM)	Average response (Drosophila OR71a; cc. 10 µM)	Average response (Drosophila OR71a; cc. 100 µM)	DF norm AVERAGE OR71a (Drosophila OR71a; [1])	DF norm AVERAGE OR71a (Drosophila OR71a; [2])	DF norm AVERAGE OR71a (Drosophila OR71a; [3])	OR47a response (VUAA1-normalized) at 1 μM (Drosophila OR47a)	OR47a response (VUAA1-normalized) at 10 μM (Drosophila OR47a)	OR47a response (VUAA1-normalized) at 100 μM (Drosophila OR47a)	Average response (Drosophila OR47a; odorant cc. 1 µM)	Average response (Drosophila OR47a; odorant cc. 10 µM)	Average response (Drosophila OR47a; odorant cc. 100 µM)	DF norm AVERAGE OR47a (Drosophila OR47a; [1])	DF norm AVERAGE OR47a (Drosophila OR47a; [2])	DF norm AVERAGE OR47a (Drosophila OR47a; [3])
Cc1ccc(C(C)C)cc1 [p-cymene]	0.00	0.00	0.00	0.00	0.023	0.00	0	0	0	0.00	0.00	0.00	0.00	0.00	0.00	0	0	0
Cc1ccc(C)cc1 [p-xylene]	0.00	0.06	0.00	0.00	0.06	0.00	0	0.0615	0	0.00	0.00	0.00	0.00	0.00	0.0271	0	0	0
